Like-named read-outs stand apart in the source and are kept apart here.
Assays:
[1] = test system: iCell endothelial cells (human iPSC-derived ECs); test: Tube formation (tubulogenesis) assay in iCell endothelial cells, 18 h; assay type: cell-based; conditions: Homo sapiens, Endothelial cell, iPSC-EC tube formation, 18 hr; for activity at 0.1 µM: 0.10 µM; for minimal effective concentration: top concentration 100.00 µM
How it was run: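 iCell ECs (passages 1–5) seeded 7,500 cells/well on reduced-growth-factor Geltrex in starvation medium, exposed overnight at 37°C to compounds in triplicate concentration–response (0.5% DMSO vehicle). Calcein AM staining, 4× imaging, angiogenesis image analysis; readouts normalized to vehicle, four-parameter logistic fit, POD at 1 SD of vehicle; 100 μM assigned NOAEL if no response.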

[2] = test system: iCell endothelial cells (human iPSC-derived ECs); test: High-content imaging cytotoxicity in iCell endothelial cells, 24 h; assay type: cell-based; conditions: Homo sapiens, Endothelial cell, iPSC-EC, 24 hr; for viability at 0.1 µM / activity at 0.1 µM: 0.10 µM; for minimal effective concentration: top concentration 100.00 µM
How it was run: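 Human iPSC-derived endothelial cells (passages 1–5) were grown to a fibronectin-coated monolayer, then exposed 24 h at 37 °C with 0.5% DMSO vehicle. Staining was Hoechst 33342, MitoTracker Orange and calcein AM, read by high-content imaging. Point of departure came from 4-parameter logistic fits, with a 1-SD vehicle cutoff and 100 µM as the top concentration.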

[3] = 0.00 µM control = 100.00, read-out: endo.mtl.18hr
[4] = 0.00 µM control = 100.00, read-out: endo.tlps.18hr
[5] = 0.00 µM control = 100.00, read-out: endo.tta.18hr
[6] = 0.00 µM control = 100.00, read-out: endo.ttl.18hr
[7] = 0.00 µM control = 100.00, read-out: endo.cyto.24hr
[8] = 0.00 µM control = 100.00, read-out: endo.mito.24hr
[9] = 0.00 µM control = 100.00, read-out: endo.mitoint.24hr
[10] = 0.00 µM control = 100.00, read-out: endo.nma.24hr
[11] = 0.00 µM control = 100.00, read-out: endo.tc.24hrs
[12] = read-out: endo.mitoint.24hr POD

COc1ccc(-c2ccc(Cl)cc2)cc1 [4'-OMe PCB3]
activity at 0.01 µM [1, 3]: 101%
activity at 0.01 µM [1, 4]: 95.9%
activity at 0.01 µM [1, 5]: 157%
activity at 0.01 µM [1, 6]: 149%
activity at 0.1 µM [1, 3]: 102%
activity at 0.1 µM [1, 4]: 127%
activity at 0.1 µM [1, 5]: 130%
activity at 0.1 µM [1, 6]: 124%
activity at 1 µM [1, 3]: 96%
activity at 1 µM [1, 4]: 95%
activity at 1 µM [1, 5]: 127%
activity at 1 µM [1, 6]: 123%
activity at 10 µM [1, 3]: 76%
activity at 10 µM [1, 4]: 82.1%
activity at 10 µM [1, 5]: 58.6%
activity at 10 µM [1, 6]: 56.5%
activity at 100 µM [1, 3]: 65.6%
activity at 100 µM [1, 4]: 33%
activity at 100 µM [1, 5]: 46.5%
activity at 100 µM [1, 6]: 46.3%
minimal effective concentration ([1]; read-out: endo.mtl.18hr POD): 3.4 µM
minimal effective concentration ([1]; read-out: endo.tlps.18hr POD): 12.3 µM
minimal effective concentration ([1]; read-out: endo.tta.18hr POD): 7.76 µM
minimal effective concentration ([1]; read-out: endo.ttl.18hr POD): 7.16 µM
viability at 0.01 µM [2, 7]: 93.4%
activity at 0.01 µM [2, 8]: 93.4%
activity at 0.01 µM [2, 9]: 107%
activity at 0.01 µM [2, 10]: 105%
viability at 0.01 µM [2, 11]: 93.4%
viability at 0.1 µM [2, 7]: 103%
activity at 0.1 µM [2, 8]: 103%
activity at 0.1 µM [2, 9]: 99.7%
activity at 0.1 µM [2, 10]: 98.5%
viability at 0.1 µM [2, 11]: 103%
viability at 1 µM [2, 7]: 95.6%
activity at 1 µM [2, 8]: 96%
activity at 1 µM [2, 9]: 102%
activity at 1 µM [2, 10]: 102%
viability at 1 µM [2, 11]: 95.6%
viability at 10 µM [2, 7]: 108%
activity at 10 µM [2, 8]: 109%
activity at 10 µM [2, 9]: 107%
activity at 10 µM [2, 10]: 95%
viability at 10 µM [2, 11]: 108%
viability at 100 µM [2, 7]: 93.3%
activity at 100 µM [2, 8]: 93.7%
activity at 100 µM [2, 9]: 119%
activity at 100 µM [2, 10]: 99.7%
viability at 100 µM [2, 11]: 93.5%
minimal effective concentration ([2]; read-out: endo.cyto.24hr POD): 100 µM
minimal effective concentration ([2]; read-out: endo.mito.24hr POD): 100 µM
minimal effective concentration [2, 12]: 20.5 µM
minimal effective concentration ([2]; read-out: endo.nma.24hr POD): 100 µM
minimal effective concentration ([2]; read-out: endo.tc.24hrs POD): 100 µM

COc1ccc(-c2cccc(Cl)c2)cc1Cl [4-OMe PCB11]
activity at 0.01 µM [1, 3]: 115%
activity at 0.01 µM [1, 4]: 108%
activity at 0.01 µM [1, 5]: 168%
activity at 0.01 µM [1, 6]: 169%
activity at 0.1 µM [1, 3]: 114%
activity at 0.1 µM [1, 4]: 108%
activity at 0.1 µM [1, 5]: 134%
activity at 0.1 µM [1, 6]: 137%
activity at 1 µM [1, 3]: 113%
activity at 1 µM [1, 4]: 122%
activity at 1 µM [1, 5]: 139%
activity at 1 µM [1, 6]: 145%
activity at 10 µM [1, 3]: 95.5%
activity at 10 µM [1, 4]: 82.3%
activity at 10 µM [1, 5]: 105%
activity at 10 µM [1, 6]: 106%
activity at 100 µM [1, 3]: 88.4%
activity at 100 µM [1, 4]: 63.4%
activity at 100 µM [1, 5]: 101%
activity at 100 µM [1, 6]: 100%
minimal effective concentration ([1]; read-out: endo.mtl.18hr POD): 100 µM
minimal effective concentration ([1]; read-out: endo.tlps.18hr POD): 28.4 µM
minimal effective concentration ([1]; read-out: endo.tta.18hr POD): 0.00169 µM
minimal effective concentration ([1]; read-out: endo.ttl.18hr POD): 0.00197 µM
viability at 0.01 µM [2, 7]: 88.3%
activity at 0.01 µM [2, 8]: 88.6%
activity at 0.01 µM [2, 9]: 94.9%
activity at 0.01 µM [2, 10]: 107%
viability at 0.01 µM [2, 11]: 88.3%
viability at 0.1 µM [2, 7]: 101%
activity at 0.1 µM [2, 8]: 100%
activity at 0.1 µM [2, 9]: 87%
activity at 0.1 µM [2, 10]: 104%
viability at 0.1 µM [2, 11]: 101%
viability at 1 µM [2, 7]: 99.8%
activity at 1 µM [2, 8]: 99.2%
activity at 1 µM [2, 9]: 87.7%
activity at 1 µM [2, 10]: 100%
viability at 1 µM [2, 11]: 99.8%
viability at 10 µM [2, 7]: 100%
activity at 10 µM [2, 8]: 100%
activity at 10 µM [2, 9]: 97.5%
activity at 10 µM [2, 10]: 101%
viability at 10 µM [2, 11]: 100%
viability at 100 µM [2, 7]: 97.3%
activity at 100 µM [2, 8]: 98%
activity at 100 µM [2, 9]: 98.6%
activity at 100 µM [2, 10]: 102%
viability at 100 µM [2, 11]: 97.3%
minimal effective concentration ([2]; read-out: endo.cyto.24hr POD): 100 µM
minimal effective concentration ([2]; read-out: endo.mito.24hr POD): 100 µM
minimal effective concentration [2, 12]: 100 µM
minimal effective concentration ([2]; read-out: endo.nma.24hr POD): 100 µM
minimal effective concentration ([2]; read-out: endo.tc.24hrs POD): 100 µM

Source: publication PMC7377239, “Cardiovascular Effects of Polychlorinated Biphenyls and Their Major Metabolites” (Environmental Health Perspectives, 2020)
